# In patent US10590116B2, “3-indolyl furanoids as inhibitors of matrix metalloproteinase-9 for prevention of gastric ulcer and other inflammatory diseases” (Council of Scientific & Industrial Research, priority 2017, dated 2020):
# “Also recorded” adds a separate entry of the source.
# Legend:
# [1] = tested on: gastric epithelium and submucosa; assay: Haematoxylin-eosin staining of gastric tissue sections; type: in vivo; conditions: 50 mg/kg body weight, indomethacin ulcerated mice
# Source text: To understand the fine information about the physical condition (the level of damage and/or intactness) of cells tissues under observation, different tissue samples were fixed in 10% formalin and embedded in paraffin. Tissue sections were deparaffinized with xylene and rehydrated with descending alcohol series. The sections were cut using microtome, and stained with hematoxylin and eosin, or subjected to Terminal deoxynucleotidyl transferase-mediated dUTP Nick End Labeling (TUNEL) assay by using a in situ apoptosis detection kit. Fixation, permeabilization, and staining were carried out in exact parallel to ensure comparative significance among normal, ulcerated and compound 5 treated groups. […] Images at 10× and 40× magnification were captured using Camedia software (E-20P 5.0 Megapixel) and processed under Adobe Photoshop version 7.0 (FIG. 1B).
# Tissue sections were stained with hematoxylin and eosin stain. Fixation, permeabilization, and staining were carried out in parallel in normal, ulcerated and compound 5 treated groups to ensure comparative significance among different treatment. TUNEL assay is used for detection and quantification of apoptosis in gastric tissues, based on labelling of DNA strand breaks. Terminal deoxynucleotidyl transferase-mediated dUTP Nick End Labeling (TUNEL) assay was performed by using an in situ apoptosis detection kit. […]
# protein carbonyl = assay: Measurement of protein carbonyl in gastric tissue homogenate; type: in vivo; conditions: 50 mg/kg bw, ulcerated mice
# Method: Protein carbonyl groups are considered as biomarkers of oxidative stress. Protein oxidation was measured as carbonyl content in the low speed supernatant of the gastric tissue homogenate. The stomach from control, stress ulcerated, and compound 5 treated (50 mg/kg bw) mice were homogenized in 50 mM sodium phosphate buffer pH 7.4 in a Potter-Elvehjem glass homogenizer for 2 min to get 20% homogenate. After centrifugation at 600 g for 10 min, the proteins from 1.0 mL of the supernatant were precipitated with 10% trichloroacetic acid and allowed to react with 0.5 mL of 10 mM 2,4-dinitrophenyl hydrazine for 1 h. After precipitation with 20% trichloroacetic acid, proteins were washed thrice with a mixture of ethanol-ethyl acetate (1:1), dissolved in 1.0 mL of a solution containing 6 M guanidine HCl in 20 mM potassium phosphate adjusted to pH 2.3 with trifluroacetic acid, and centrifuged. The absorbance of the supernatant was read at 362 nm for carbonyl content (E=22,000/M/cm).
# The fundic stomach homogenate was used for measurement of protein carbonyl formation as nmol/mg protein.
# [2] = tested on: lipid peroxide content (TBARS); assay: Measurement of lipid peroxidation (TBARS) in gastric tissue homogenate; type: in vivo; conditions: ulcerated mice
# Method: The fundic stomach homogenate was used for measurement of lipid peroxide content as thiobarbituric acid reactive species (TBARS).
# The cytosolic fraction from the gastric tissue homogenate was used for measurement of lipid peroxide content as thiobarbituric acid reactive species (TBARS). Briefly, 1 mL of the cytosolic fraction was allowed to react with 2 mL of TCA-TBA-HCl (15% TCA, 0.375% TBA, 0.25 N HCl) reagent, heated in a boiling water-bath for 15 min, cooled and centrifuged. The absorbance of the supernatant was measured for nano moles of TBARS at 535 nm (ε=1.5×10^5/M/cm).
# MMP-9 = biological target: T1, MMP-9 (Mus musculus, UniProt P41245); assay: Gelatin zymography of gastric tissue extract, MMP-9; type: in vivo, mice; conditions: pretreatment before indomethacin
# T1 construct: from tissue; host or cells: mouse stomach (gastric tissue) PBS / Triton X-100 extracts
# T1 sequence (P41245 108-730): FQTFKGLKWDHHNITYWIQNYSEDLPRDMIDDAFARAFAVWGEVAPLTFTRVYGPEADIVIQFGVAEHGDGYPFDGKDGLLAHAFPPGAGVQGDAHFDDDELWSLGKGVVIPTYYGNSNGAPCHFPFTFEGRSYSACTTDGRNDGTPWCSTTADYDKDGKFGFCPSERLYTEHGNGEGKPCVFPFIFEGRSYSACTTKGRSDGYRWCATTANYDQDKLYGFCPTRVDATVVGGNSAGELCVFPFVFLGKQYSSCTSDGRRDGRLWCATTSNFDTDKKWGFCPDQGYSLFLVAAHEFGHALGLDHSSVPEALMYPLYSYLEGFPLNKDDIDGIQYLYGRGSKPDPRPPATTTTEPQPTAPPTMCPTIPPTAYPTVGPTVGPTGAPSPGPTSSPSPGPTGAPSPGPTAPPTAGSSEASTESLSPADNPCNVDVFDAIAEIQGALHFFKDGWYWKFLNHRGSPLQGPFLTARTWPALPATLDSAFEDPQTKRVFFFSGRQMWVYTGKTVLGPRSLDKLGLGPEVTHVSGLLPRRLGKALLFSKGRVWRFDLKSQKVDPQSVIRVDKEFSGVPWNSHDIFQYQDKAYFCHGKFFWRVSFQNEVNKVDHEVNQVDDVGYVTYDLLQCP
# Method: (§1) The whole stomach (including fundic, body and pyloric parts) was washed with saline and used for extraction. Stomach except connective tissue layer (named as gastric tissue) were suspended in 10 mM phosphate buffer saline (PBS) containing protease inhibitors, minced and incubated for 10 min at 4° C. After centrifugation at 12,000 g for 15 min, the supernatant was collected as PBS extracts. The pellet was then extracted in lysis buffer (10 mM Tris-HCl pH 8.0, 150 mM NaCl, 1% Triton X-100 and protease inhibitors) and centrifuged at 12,000 g for 15 min to obtain TX extracts. Both PBS and TX extracts were preserved at −70° C. and used in future studies. Proteins were estimated either by Lowry method or by Bradford assay.
# (§2) For the analysis of MMP-9 activity, tissue extracts were electrophoresed in 8% SDS-PAGE containing 1 mg/mL gelatin under nonreducing conditions. Equal amounts of tissue extracts (70 μg of total protein) were loaded in all the lanes. […] Quantification of zymographic bands was performed using densitometry linked to proper software (Lab Image, Kapelan Gmbh, Leipzig, Germany). […]
# (§3) Tissue extracts were electrophoresed in SDS-PAGE containing gelatin under nonreducing conditions. […] Gelatinolytic activity came as negative staining and was quantified by Lab Image software.
# MMP-2 = biological target: T2, MMP-2 (Mus musculus, UniProt P33434); assay: Gelatin zymography of gastric tissue extract, MMP-2; type: in vivo, mice; conditions: pretreatment before indomethacin
# T2 construct: Tissue extracts were electrophoresed in SDS-PAGE containing gelatin under nonreducing conditions; from tissue; host or cells: mouse stomach (gastric tissue) PBS / Triton X-100 extracts
# T2 sequence (P33434 110-662): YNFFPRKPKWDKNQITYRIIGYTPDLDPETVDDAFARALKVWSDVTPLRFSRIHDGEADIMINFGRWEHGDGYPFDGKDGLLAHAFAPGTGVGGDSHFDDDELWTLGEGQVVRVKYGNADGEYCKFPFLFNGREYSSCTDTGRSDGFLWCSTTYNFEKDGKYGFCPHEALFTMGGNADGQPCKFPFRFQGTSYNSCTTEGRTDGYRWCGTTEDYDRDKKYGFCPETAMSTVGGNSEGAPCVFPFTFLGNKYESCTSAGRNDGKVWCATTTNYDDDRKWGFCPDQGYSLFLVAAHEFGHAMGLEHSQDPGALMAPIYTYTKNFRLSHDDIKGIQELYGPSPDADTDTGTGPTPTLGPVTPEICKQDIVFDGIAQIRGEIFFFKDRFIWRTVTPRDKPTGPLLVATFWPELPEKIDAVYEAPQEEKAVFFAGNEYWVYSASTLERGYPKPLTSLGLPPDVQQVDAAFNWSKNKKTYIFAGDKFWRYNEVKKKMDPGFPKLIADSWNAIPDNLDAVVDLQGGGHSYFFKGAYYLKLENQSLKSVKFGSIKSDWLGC
# Method: as §1, §2, §3
# [3] = Toxicity studies through repeat daily dosing; type: in vivo
# Method: FIG. 4 gives the In vivo toxicity test. Male and female BALB/c mice (n=10) received indicated doses of compound 5 by daily gavage. Control mice received vehicle (olive oil). Body weights were determined 4 days before the start of the treatment and then throughout the period of treatment until day 25. Data points represent mean body weight.
# The purpose of this study was to assess the efficacy of prolonged oral compound 5 treatment and ascertaining adverse impact, if any. […] The female mice were, on an average, 4 g lighter than male mice which is consistent with the common sex-specific weight difference.
# [4] = 150 or 300 mg/kg body weight/day for 25 days, daily gavage
smiles,measurement,setting,value
"COc1cccc2[nH]cc(-c3cc(-c4ccccc4)oc3-c3ccccc3)c12 [compound 5, 4-methoxy-3-(2,5-diphenylfuran-3-yl)-1H-indole]","gastric injury, haematoxylin-eosin staining",[1],minimum injury and intact epithelial layer; also recorded: prevents indomethacin induced gastric injury
same,Protein carbonylation,protein carbonyl,1.58±0.18 nmol/mg protein
same,Protein carbonylation,protein carbonyl; listed as Compound 5,1.58 ± 0.18 nmol/mg protein
same,Lipid peroxidation,[2],0.47±0.15 nmol TBARS/mg tissue
same,Lipid peroxidation,[2]; listed as Compound 5,0.47 ± 0.15 nmol TBARS/mg tissue
same,MMP-9 activity in gastric tissue extract,MMP-9,inhibits MMP-9 activity in gastric mucosa
same,MMP-9 activity in gastric tissue extract,MMP-9; listed as Compound 5,inhibited MMP-9 activity very significantly
same,MMP-2 activity in gastric tissue extract,MMP-2,remained unaltered
same,"body weight, treated versus control groups",[3]; [4],no differences in body weight
same,"clinical signs of toxicity (lethargy, abdominal distension, fur loss, hunching)",[3]; [4],no clinical signs of toxicity
same,"toxicity, general statement","[3]; mouse, in vivo",non-toxic
